According to ChEMBL document CHEMBL1201862, “PubChem BioAssay data set” (2004):
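Cells were grown in 96-well plates and exposed to each compound for 48 hours at five concentrations; endpoints were interpolated linearly between bracketing concentrations, or set to the highest concentration if not reached. Here, GI50 denotes the concentration required for 50% inhibition of growth.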 Activity calls are given as the source filed them. Cut-off read from the data, not from the text of the source: active = GI50 up to about 1.1 µM and inactive = higher.

Assays:
Experiment in all cases: NCI tumour cell line growth inhibition, 48 h
HOP-62 = tested on: HOP-62
UACC-62 = tested on: UACC-62
HCT-15 = tested on: HCT-15
OVCAR-8 = tested on: OVCAR-8
BT-549 = tested on: BT-549
MDA-MB-231 = tested on: MDA-MB-231
MDA-MB-435 = tested on: MDA-MB-435
A549 = tested on: A549
SK-MEL-2 = tested on: SK-MEL-2
OVCAR-4 = tested on: OVCAR-4
SN12C = tested on: SN12C
KM12 = tested on: KM12
NCI-H226 = tested on: NCI-H226
MDA-N = tested on: MDA-N
HOP-92 = tested on: HOP-92
PC-3 = tested on: PC-3
SF-295 = tested on: SF-295
SK-OV-3 = tested on: SK-OV-3
MCF7 = tested on: MCF7
NCI-H23 = tested on: NCI-H23

SMILES | GI50 (HOP-62) | GI50 (UACC-62) | GI50 (HCT-15) | GI50 (OVCAR-8) | GI50 (BT-549) | GI50 (MDA-MB-231) | GI50 (MDA-MB-435) | GI50 (A549) | GI50 (SK-MEL-2) | GI50 (OVCAR-4) | GI50 (SN12C) | GI50 (KM12) | GI50 (NCI-H226) | GI50 (MDA-N) | GI50 (HOP-92) | GI50 (PC-3) | GI50 (SF-295) | GI50 (SK-OV-3) | GI50 (MCF7) | GI50 (NCI-H23)
O=S1(=O)c2ccccc2C(=NO)c2ccccc21 | > 100 µM (inactive) | > 100 µM (inactive) | > 100 µM | > 100 µM (inactive) | 59.2 µM (inactive) | > 100 µM (inactive) | > 100 µM (inactive) | > 100 µM (inactive) | > 100 µM (inactive) | > 100 µM (inactive) | 92.9 µM (inactive) | > 100 µM (inactive) | > 100 µM (inactive) | > 100 µM (inactive) | > 100 µM (inactive) | 43.4 µM (inactive) | > 100 µM (inactive) | > 100 µM (inactive) | > 100 µM (inactive) | > 100 µM (inactive)
O=C1/C(=C/c2cccc(Cl)c2)CCCc2ccccc21 | 21.6 µM (inactive) | 13.7 µM (inactive) | 17.2 µM | 18.3 µM (inactive) | 19.7 µM (inactive) | 18.2 µM (inactive) | 16.2 µM (inactive) | 26.5 µM (inactive) | 17.4 µM (inactive) | 15.8 µM (inactive) | 18.2 µM (inactive) | 17.9 µM (inactive) | 16.1 µM (inactive) | 16.9 µM (inactive) | 21.1 µM (inactive) | 18.3 µM (inactive) | 17.5 µM (inactive) | 45.8 µM (inactive) | 6.03 µM (inactive) | 16.1 µM (inactive)
C#C[C@]1(O)CC[C@H]2[C@@H]3CCc4cc(OC(=O)c5cccc6cc7ccccc7nc56)ccc4[C@H]3CC[C@@]21C | 38.2 µM (inactive) | 28.5 µM (inactive) | 26.1 µM | 40.8 µM (inactive) | 74 µM (inactive) | 25.6 µM (inactive) | 31.2 µM (inactive) | 34 µM (inactive) | 29.2 µM (inactive) | 38.4 µM (inactive) | 20.9 µM (inactive) | 20 µM (inactive) | 33.2 µM (inactive) | 25.5 µM (inactive) | 66.5 µM (inactive) | 35.9 µM (inactive) | – | 62.1 µM (inactive) | 25.2 µM (inactive) | 40.3 µM (inactive)
CCCCCCCCCCCCCCCC(=O)OCC1OC(n2ccc(N)nc2=O)C(O)C1O (stereo unspecified) | 0.403 µM (active) | 11.4 µM (inactive) | > 42.2 µM | 2.39 µM (inactive) | > 100 µM (inactive) | > 100 µM (inactive) | 6.75 µM (inactive) | 0.601 µM (active) | > 100 µM (inactive) | > 100 µM (inactive) | 9.95 µM (inactive) | > 100 µM (inactive) | > 100 µM (inactive) | > 100 µM (inactive) | > 28.8 µM (inactive) | > 100 µM (inactive) | 44.8 µM (inactive) | 15.5 µM (inactive) | 1.06 µM (active) | 1.25 µM (inactive)
CC[C@]1(Cc2ccc(OC)c(OC)c2)C2CC(C(=O)OC)ON2O[C@H](OCc2ccccc2)[C@@H]1OC(C)=O (stereo partly specified) | > 100 µM (inactive) | > 100 µM (inactive) | > 100 µM | > 100 µM (inactive) | > 100 µM (inactive) | > 100 µM (inactive) | > 100 µM (inactive) | > 100 µM (inactive) | > 100 µM (inactive) | > 100 µM (inactive) | > 100 µM (inactive) | > 100 µM (inactive) | > 100 µM (inactive) | > 100 µM (inactive) | 99.3 µM (inactive) | > 100 µM (inactive) | > 100 µM (inactive) | > 100 µM (inactive) | > 100 µM (inactive) | > 100 µM (inactive)
CC(=O)Oc1c(OC(C)C)c(C)c(O[Si](C(C)C)(C(C)C)C(C)C)c2[nH]c3ccccc3c12 | > 100 µM (inactive) | > 100 µM (inactive) | > 75.7 µM | > 100 µM (inactive) | > 100 µM (inactive) | > 88.3 µM (inactive) | > 42.2 µM (inactive) | > 82.2 µM (inactive) | > 100 µM (inactive) | 57.8 µM (inactive) | > 69 µM (inactive) | 67.3 µM (inactive) | > 100 µM (inactive) | > 100 µM (inactive) | > 100 µM (inactive) | 37.7 µM (inactive) | 76.2 µM (inactive) | > 100 µM (inactive) | 56.6 µM (inactive) | 33.6 µM (inactive)
CN[C@H]1CC[C@]23C[C@]24CC[C@]2(C)[C@@H]([C@H](C)N(C)C)CC[C@@]2(C)[C@@H]4CC[C@H]3C1(C)C | – | 15.8 µM (inactive) | 10.7 µM | 17.3 µM (inactive) | 12.7 µM (inactive) | 21.1 µM (inactive) | 14.1 µM (inactive) | 17.4 µM (inactive) | 18 µM (inactive) | 17.7 µM (inactive) | 14.3 µM (inactive) | 15 µM (inactive) | 16.5 µM (inactive) | 13.9 µM (inactive) | 10.9 µM (inactive) | 9.08 µM (inactive) | 14.6 µM (inactive) | 19.1 µM (inactive) | 15.6 µM (inactive) | 15.7 µM (inactive)
COC(=O)[C@]1(CCC(C)=O)C(=O)C=CN([C@H](C)c2ccccc2)[C@@H]1Cc1ccc(OC)c(OCc2ccccc2)c1I | 22.8 µM (inactive) | 14.8 µM (inactive) | 18.9 µM | 22 µM (inactive) | 24.1 µM (inactive) | 15.8 µM (inactive) | 18.1 µM (inactive) | 20.4 µM (inactive) | 16.6 µM (inactive) | 19.3 µM (inactive) | 18 µM (inactive) | 19.2 µM (inactive) | 15.7 µM (inactive) | 18.7 µM (inactive) | 6.08 µM (inactive) | 16.6 µM (inactive) | 17.7 µM (inactive) | 35.4 µM (inactive) | 19.2 µM (inactive) | 23.7 µM (inactive)
CC(C)=CC[C@]12CCN(C)[C@H]1N(S(=O)(=O)c1ccccc1)c1ccccc12 | > 45.4 µM (inactive) | > 35.6 µM (inactive) | > 47.2 µM | > 64 µM (inactive) | > 56.5 µM (inactive) | > 52.4 µM (inactive) | > 44.7 µM (inactive) | – | 15.5 µM (inactive) | 43.6 µM (inactive) | > 62.2 µM (inactive) | 26.1 µM (inactive) | > 38.5 µM (inactive) | 48.2 µM (inactive) | 3.38 µM (inactive) | > 54 µM (inactive) | > 54.7 µM (inactive) | 6.25 µM (inactive) | > 42.8 µM (inactive) | > 19.9 µM (inactive)
C=C([C@@]1(O)C[C@H]2[C@H](CCC2(OC)OC)[C@@H]2c3ccccc3O[C@@H]21)[Si](C)(C)C | > 100 µM (inactive) | > 100 µM (inactive) | > 100 µM | > 100 µM (inactive) | > 100 µM (inactive) | > 100 µM (inactive) | > 100 µM (inactive) | > 100 µM (inactive) | > 100 µM (inactive) | > 100 µM (inactive) | > 100 µM (inactive) | > 100 µM (inactive) | > 100 µM (inactive) | > 100 µM (inactive) | 1.78 µM (inactive) | > 100 µM (inactive) | > 100 µM (inactive) | > 100 µM (inactive) | 93.1 µM (inactive) | –
